Reference: article PMC5488202

Experiment: Ring-closing metathesis (C=C formation) of fluorous-tagged (FDIPES) terminal dienes with Hoveyda-Grubbs 2nd generation catalyst (typically 2 mol%, 1-5 mol%), usually with 1,4-benzoquinone (4-10 mol%); quench P(CH2OH)3/Et3N/silica
Conditions: MTBE, 2.0 mM, 55.0 °C

CC(C)[Si](CCC(F)(F)C(F)(F)C(F)(F)C(F)(F)C(F)(F)C(F)(F)C(F)(F)C(F)(F)F)(OC[C@@H]1COCC=CCCN(S(=O)(=O)C(F)(F)F)Cc2ccccc2CN1S(=O)(=O)c1ccccc1[N+](=O)[O-])C(C)C [35 (16+12; E/Z 70:30)]
ring closure, isolated yield (from C=CCCN(Cc1ccccc1CN([C@@H](COCC=C)CO[Si](CCC(F)(F)C(F)(F)C(F)(F)C(F)(F)C(F)(F)C(F)(F)C(F)(F)C(F)(F)F)(C(C)C)C(C)C)S(=O)(=O)c1ccccc1[N+](=O)[O-])S(=O)(=O)C(F)(F)F, 14-membered ring, 36.0 h): 98%

CC(C)[Si](CCC(F)(F)C(F)(F)C(F)(F)C(F)(F)C(F)(F)C(F)(F)C(F)(F)C(F)(F)F)(OC[C@H]1CC=CCCN(S(=O)(=O)C(F)(F)F)Cc2ccccc2CN1S(=O)(=O)c1ccccc1[N+](=O)[O-])C(C)C [26 (13+12; E/Z >98:<2)]
ring closure, isolated yield (from C=CCCN(Cc1ccccc1CN([C@H](CC=C)CO[Si](CCC(F)(F)C(F)(F)C(F)(F)C(F)(F)C(F)(F)C(F)(F)C(F)(F)C(F)(F)F)(C(C)C)C(C)C)S(=O)(=O)c1ccccc1[N+](=O)[O-])S(=O)(=O)C(F)(F)F, 12-membered ring, 6.0 h): 76%

CC(C)[Si](CCC(F)(F)C(F)(F)C(F)(F)C(F)(F)C(F)(F)C(F)(F)C(F)(F)C(F)(F)F)(OC[C@H]1COCC=CCCN(S(=O)(=O)C(F)(F)F)Cc2cccc(c2)CN1S(=O)(=O)c1ccccc1[N+](=O)[O-])C(C)C [38 (17+12; E 55% + Z 15%)]
ring closure, isolated yield (from C=CCCN(Cc1cccc(CN([C@H](COCC=C)CO[Si](CCC(F)(F)C(F)(F)C(F)(F)C(F)(F)C(F)(F)C(F)(F)C(F)(F)C(F)(F)F)(C(C)C)C(C)C)S(=O)(=O)c2ccccc2[N+](=O)[O-])c1)S(=O)(=O)C(F)(F)F, 15-membered ring, 48.0 h): 70%

CC(C)[Si](CCC(F)(F)C(F)(F)C(F)(F)C(F)(F)C(F)(F)C(F)(F)C(F)(F)C(F)(F)F)(OC[C@@H]1COCC=CCC[C@@H](O[Si](C)(C)C(C)(C)C)[C@H](C)CN(S(=O)(=O)C(F)(F)F)Cc2ccccc2CN1S(=O)(=O)c1ccccc1[N+](=O)[O-])C(C)C [34 (16+11; E/Z >98:<2)]
ring closure, isolated yield (from C=CCC[C@@H](O[Si](C)(C)C(C)(C)C)[C@H](C)CN(Cc1ccccc1CN([C@@H](COCC=C)CO[Si](CCC(F)(F)C(F)(F)C(F)(F)C(F)(F)C(F)(F)C(F)(F)C(F)(F)C(F)(F)F)(C(C)C)C(C)C)S(=O)(=O)c1ccccc1[N+](=O)[O-])S(=O)(=O)C(F)(F)F, 17-membered ring, 16.0 h): 61%

COc1ccc([C@H]2COCC=CC[C@H](CO[Si](CCC(F)(F)C(F)(F)C(F)(F)C(F)(F)C(F)(F)C(F)(F)C(F)(F)C(F)(F)F)(C(C)C)C(C)C)N(S(=O)(=O)c3ccccc3[N+](=O)[O-])CC3=CC=C(CN(S(=O)(=O)c4ccccc4[N+](=O)[O-])C(=O)OC2)S3)c(OC)c1 [21 (15+9, from 20; 2 steps RCM + denosylation; E/Z 65:35)]
ring closure, isolated yield (from C=CCOC[C@@H](COC(=O)N(Cc1ccc(CN([C@H](CC=C)CO[Si](CCC(F)(F)C(F)(F)C(F)(F)C(F)(F)C(F)(F)C(F)(F)C(F)(F)C(F)(F)F)(C(C)C)C(C)C)S(=O)(=O)c2ccccc2[N+](=O)[O-])s1)S(=O)(=O)c1ccccc1[N+](=O)[O-])c1ccc(OC)cc1OC, 18-membered ring, 24.0 h): 34%

COc1ccc([C@H]2COCC=CC[C@H](CO[Si](CCC(F)(F)C(F)(F)C(F)(F)C(F)(F)C(F)(F)C(F)(F)C(F)(F)C(F)(F)F)(C(C)C)C(C)C)N(S(=O)(=O)c3ccccc3[N+](=O)[O-])Cc3ccccc3CN(S(=O)(=O)c3ccccc3[N+](=O)[O-])C(=O)OC2)c(OC)c1 [24 (13+9; 2 steps RCM + denosylation; E/Z 60:40)]
ring closure, isolated yield (from C=CCOC[C@@H](COC(=O)N(Cc1ccccc1CN([C@H](CC=C)CO[Si](CCC(F)(F)C(F)(F)C(F)(F)C(F)(F)C(F)(F)C(F)(F)C(F)(F)C(F)(F)F)(C(C)C)C(C)C)S(=O)(=O)c1ccccc1[N+](=O)[O-])S(=O)(=O)c1ccccc1[N+](=O)[O-])c1ccc(OC)cc1OC, 17-membered ring, 24.0 h): 33%

CC(C)[Si](CCC(F)(F)C(F)(F)C(F)(F)C(F)(F)C(F)(F)C(F)(F)C(F)(F)C(F)(F)F)(OC[C@@H]1COCC=CCOc2ccccc2COC(=O)N(S(=O)(=O)c2ccccc2[N+](=O)[O-])Cc2ccccc2CN1S(=O)(=O)c1ccccc1[N+](=O)[O-])C(C)C [33 (16+10; E/Z >98:<2)]
ring closure, isolated yield (from C=CCOC[C@@H](CO[Si](CCC(F)(F)C(F)(F)C(F)(F)C(F)(F)C(F)(F)C(F)(F)C(F)(F)C(F)(F)F)(C(C)C)C(C)C)N(Cc1ccccc1CN(C(=O)OCc1ccccc1OCC=C)S(=O)(=O)c1ccccc1[N+](=O)[O-])S(=O)(=O)c1ccccc1[N+](=O)[O-], 19-membered ring, 48.0 h): 75%

CC(C)[Si](CCC(F)(F)C(F)(F)C(F)(F)C(F)(F)C(F)(F)C(F)(F)C(F)(F)C(F)(F)F)(OC[C@H]1CC=CCCN(S(=O)(=O)C(F)(F)F)Cc2cccc(c2)CN1S(=O)(=O)c1ccccc1[N+](=O)[O-])C(C)C (mixture of isomers) [30 (14+12; E/Z mixture)]
ring closure, isolated yield (from C=CCCN(Cc1cccc(CN([C@H](CC=C)CO[Si](CCC(F)(F)C(F)(F)C(F)(F)C(F)(F)C(F)(F)C(F)(F)C(F)(F)C(F)(F)F)(C(C)C)C(C)C)S(=O)(=O)c2ccccc2[N+](=O)[O-])c1)S(=O)(=O)C(F)(F)F, 13-membered ring, 16.0 h): 47%

CC(C)[Si](CCC(F)(F)C(F)(F)C(F)(F)C(F)(F)C(F)(F)C(F)(F)C(F)(F)C(F)(F)F)(OC[C@H]1CC=CCC[C@@H](O[Si](C)(C)C(C)(C)C)[C@H](C)CN(S(=O)(=O)C(F)(F)F)Cc2ccccc2CN1S(=O)(=O)c1ccccc1[N+](=O)[O-])C(C)C [23 (13+11, from 22; 2 steps RCM + denosylation; E/Z 30:70)]
ring closure, isolated yield (from C=CCC[C@@H](O[Si](C)(C)C(C)(C)C)[C@H](C)CN(Cc1ccccc1CN([C@H](CC=C)CO[Si](CCC(F)(F)C(F)(F)C(F)(F)C(F)(F)C(F)(F)C(F)(F)C(F)(F)C(F)(F)F)(C(C)C)C(C)C)S(=O)(=O)c1ccccc1[N+](=O)[O-])S(=O)(=O)C(F)(F)F, 15-membered ring): 84%
